Measured values as given in article PMC2765192 (Journal of medicinal chemistry, 2009).

Experiments:
human mGluR4 [1] = biological target: T1, human mGluR4 (Homo sapiens, UniProt Q14833); assay type: cell-based; settings: for mGluR4 PAM activity (in words): human mGluR4
human mGluR4 [2] = biological target: T1, human mGluR4; assay: Fold shift of glutamate concentration-response curve, human mGluR4/Gqi5 cells; settings: fold shift of glutamate response curve to the left
rat mGluR4 = rat mGluR4 (Rattus norvegicus, UniProt P31423)
rat mGluR4, sequence (P31423 33-912): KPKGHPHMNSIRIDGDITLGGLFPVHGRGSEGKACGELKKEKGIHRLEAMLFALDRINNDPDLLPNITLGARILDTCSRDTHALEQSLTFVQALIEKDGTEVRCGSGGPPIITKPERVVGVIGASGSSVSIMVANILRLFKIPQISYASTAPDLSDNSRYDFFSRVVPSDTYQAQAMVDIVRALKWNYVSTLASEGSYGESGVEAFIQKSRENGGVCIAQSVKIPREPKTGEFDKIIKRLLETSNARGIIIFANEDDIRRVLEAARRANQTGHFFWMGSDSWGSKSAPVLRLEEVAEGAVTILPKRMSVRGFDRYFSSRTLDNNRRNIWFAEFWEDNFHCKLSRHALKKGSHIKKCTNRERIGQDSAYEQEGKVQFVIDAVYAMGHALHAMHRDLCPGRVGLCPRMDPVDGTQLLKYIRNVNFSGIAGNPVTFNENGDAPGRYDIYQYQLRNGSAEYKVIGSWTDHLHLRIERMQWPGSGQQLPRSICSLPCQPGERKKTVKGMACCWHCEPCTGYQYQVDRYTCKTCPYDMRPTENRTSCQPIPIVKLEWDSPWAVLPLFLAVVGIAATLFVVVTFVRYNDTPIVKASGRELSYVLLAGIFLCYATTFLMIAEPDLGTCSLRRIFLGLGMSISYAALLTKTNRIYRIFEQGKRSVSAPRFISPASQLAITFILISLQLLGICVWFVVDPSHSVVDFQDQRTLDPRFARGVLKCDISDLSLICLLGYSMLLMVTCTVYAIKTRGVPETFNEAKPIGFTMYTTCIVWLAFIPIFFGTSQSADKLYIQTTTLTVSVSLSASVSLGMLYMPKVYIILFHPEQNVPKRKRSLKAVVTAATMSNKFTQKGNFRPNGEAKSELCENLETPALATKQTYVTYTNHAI

mGluR5 = mGluR5 (Homo sapiens, UniProt P41594); assay: mGluR subtype selectivity: mGluR5; settings: for separation in potencies compared to mGluR4: mGluR5 vs mGluR4; for PAM activity at mGluR5 (in words): selectivity
mGluR5, sequence (P41594 21-1212): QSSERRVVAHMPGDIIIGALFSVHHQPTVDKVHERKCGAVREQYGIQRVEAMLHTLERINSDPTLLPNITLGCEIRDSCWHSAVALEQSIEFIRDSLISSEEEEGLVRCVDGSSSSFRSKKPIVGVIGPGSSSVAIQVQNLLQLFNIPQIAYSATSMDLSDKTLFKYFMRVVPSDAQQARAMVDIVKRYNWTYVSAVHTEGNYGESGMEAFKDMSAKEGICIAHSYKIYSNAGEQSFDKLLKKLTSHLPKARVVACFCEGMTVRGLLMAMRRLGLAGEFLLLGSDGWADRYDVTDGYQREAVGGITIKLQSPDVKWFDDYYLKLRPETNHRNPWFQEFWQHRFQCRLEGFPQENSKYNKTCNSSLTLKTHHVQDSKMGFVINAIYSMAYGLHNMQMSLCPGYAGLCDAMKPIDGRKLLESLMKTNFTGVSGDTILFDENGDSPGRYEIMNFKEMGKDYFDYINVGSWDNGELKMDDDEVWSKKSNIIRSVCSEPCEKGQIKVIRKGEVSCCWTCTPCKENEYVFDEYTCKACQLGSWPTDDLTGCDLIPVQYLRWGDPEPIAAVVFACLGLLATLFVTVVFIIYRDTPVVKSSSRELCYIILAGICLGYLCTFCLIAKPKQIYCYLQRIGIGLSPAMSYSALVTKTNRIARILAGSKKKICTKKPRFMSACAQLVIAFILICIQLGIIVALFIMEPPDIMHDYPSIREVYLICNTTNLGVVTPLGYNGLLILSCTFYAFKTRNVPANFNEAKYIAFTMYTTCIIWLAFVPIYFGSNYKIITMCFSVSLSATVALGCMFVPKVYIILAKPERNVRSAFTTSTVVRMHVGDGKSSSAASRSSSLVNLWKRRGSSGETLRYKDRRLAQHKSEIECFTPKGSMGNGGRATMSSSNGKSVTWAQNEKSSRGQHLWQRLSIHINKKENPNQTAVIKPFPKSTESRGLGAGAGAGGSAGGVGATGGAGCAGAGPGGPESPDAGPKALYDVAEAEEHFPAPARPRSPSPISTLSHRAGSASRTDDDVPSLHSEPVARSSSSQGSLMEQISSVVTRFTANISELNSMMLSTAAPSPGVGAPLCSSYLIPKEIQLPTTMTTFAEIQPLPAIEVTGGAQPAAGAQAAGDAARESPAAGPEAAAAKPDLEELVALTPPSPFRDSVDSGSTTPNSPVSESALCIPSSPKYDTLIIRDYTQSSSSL

mGluR8 = mGluR8 (Homo sapiens, UniProt O00222); assay: mGluR subtype selectivity: mGluR8; settings: for separation in potencies compared to mGluR4: mGluR8 vs mGluR4; for PAM activity at mGluR8 (in words): selectivity
mGluR8, sequence (O00222 34-908, species assumed): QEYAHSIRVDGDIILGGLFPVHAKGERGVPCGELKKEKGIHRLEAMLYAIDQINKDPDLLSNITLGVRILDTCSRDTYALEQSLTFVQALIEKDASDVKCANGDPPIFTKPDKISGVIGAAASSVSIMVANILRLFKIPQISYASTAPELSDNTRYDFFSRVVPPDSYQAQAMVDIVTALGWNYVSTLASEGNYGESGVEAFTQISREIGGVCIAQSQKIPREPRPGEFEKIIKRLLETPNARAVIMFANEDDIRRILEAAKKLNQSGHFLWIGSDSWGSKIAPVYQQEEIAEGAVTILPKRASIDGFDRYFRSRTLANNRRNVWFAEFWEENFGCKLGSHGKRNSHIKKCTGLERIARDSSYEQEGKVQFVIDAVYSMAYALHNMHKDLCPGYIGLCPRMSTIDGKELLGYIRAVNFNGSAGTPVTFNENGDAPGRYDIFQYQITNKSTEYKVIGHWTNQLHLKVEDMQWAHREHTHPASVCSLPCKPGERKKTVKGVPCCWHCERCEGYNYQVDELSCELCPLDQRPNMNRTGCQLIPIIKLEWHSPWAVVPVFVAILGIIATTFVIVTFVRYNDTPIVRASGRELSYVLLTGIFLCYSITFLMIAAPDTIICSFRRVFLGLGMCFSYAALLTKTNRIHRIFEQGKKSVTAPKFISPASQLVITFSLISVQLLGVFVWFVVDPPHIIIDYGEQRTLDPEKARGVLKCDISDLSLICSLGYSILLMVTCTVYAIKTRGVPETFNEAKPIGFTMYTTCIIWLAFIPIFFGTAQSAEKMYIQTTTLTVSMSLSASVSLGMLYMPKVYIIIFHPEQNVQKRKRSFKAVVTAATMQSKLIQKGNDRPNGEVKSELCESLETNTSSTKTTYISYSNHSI

[3] = Metabolic stability in rat liver microsomes; settings: parent remaining after the incubation period
[4] = Metabolic stability in human liver microsomes; settings: parent remaining after the incubation period
[5] = Rat pharmacokinetics, brain and plasma levels after intraperitoneal dosing; settings: rats, nontoxic vehicles

T1 sequence (Q14833 33-912): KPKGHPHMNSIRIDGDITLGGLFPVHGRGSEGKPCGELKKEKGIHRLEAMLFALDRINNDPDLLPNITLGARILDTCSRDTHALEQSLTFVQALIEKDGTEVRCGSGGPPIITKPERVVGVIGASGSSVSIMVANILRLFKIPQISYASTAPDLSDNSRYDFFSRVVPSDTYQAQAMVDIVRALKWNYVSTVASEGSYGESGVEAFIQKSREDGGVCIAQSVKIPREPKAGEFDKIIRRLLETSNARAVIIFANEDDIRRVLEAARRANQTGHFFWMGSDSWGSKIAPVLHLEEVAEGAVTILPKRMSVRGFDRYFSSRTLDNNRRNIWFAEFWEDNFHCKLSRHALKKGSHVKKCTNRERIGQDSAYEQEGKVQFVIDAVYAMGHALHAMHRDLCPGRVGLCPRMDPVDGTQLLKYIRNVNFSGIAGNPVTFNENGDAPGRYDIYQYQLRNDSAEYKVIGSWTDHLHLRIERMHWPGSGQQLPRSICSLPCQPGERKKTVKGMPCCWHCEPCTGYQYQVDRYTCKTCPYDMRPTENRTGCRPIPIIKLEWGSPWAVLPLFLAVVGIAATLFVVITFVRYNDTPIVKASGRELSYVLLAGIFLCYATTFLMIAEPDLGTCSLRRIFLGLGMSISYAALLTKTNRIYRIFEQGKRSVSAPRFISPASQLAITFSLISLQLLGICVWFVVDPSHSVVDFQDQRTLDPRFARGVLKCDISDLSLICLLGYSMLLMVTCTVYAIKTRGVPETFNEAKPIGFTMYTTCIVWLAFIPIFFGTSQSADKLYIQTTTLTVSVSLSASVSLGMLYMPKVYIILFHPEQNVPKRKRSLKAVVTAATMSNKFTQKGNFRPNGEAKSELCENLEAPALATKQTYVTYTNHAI

SMILES | mGluR4 PAM activity (in words) (human mGluR4 [1]) | RLM (% remaining) [3] | HLM (% remaining) [4] | other results
O=C(Nc1ccc(Cl)c(Cl)c1)c1cnccn1 [Compound 8k] | lost activity | – | – | –
O=C(Nc1cccc(C(F)(F)F)n1)c1ccccn1 [Compound 9o] | inactive | – | – | –
O=C(Nc1ccccc1)[C@]12C[C@H]1/C(=N\O)c1ccccc1O2 [Compound 1, (-)-PHCCC] | – | – | – | FS (h) (human mGluR4 [2]): 7.0±0.2
COc1cc(NC(=O)c2ccccn2)ncn1 [Compound 9p] | inactive | – | – | –
O=C(Nc1ccc(Cl)c(Cl)c1)c1ccncn1 [Compound 8l] | retained potency | – | – | –
O=C(Nc1cccc(OC(F)F)c1)c1ccccn1 [Compound 9c] | submicromolar potency | 1.4 % remaining | 2.4 % remaining | potency at rat mGluR4 (in words) (rat mGluR4): submicromolar potency; separation in potencies compared to mGluR4 (mGluR5): > 20 fold; PAM activity at mGluR5 (in words) (mGluR5): weak PAM activity; separation in potencies compared to mGluR4 (mGluR8): > 20 fold; PAM activity at mGluR8 (in words) (mGluR8): weak PAM activity; central penetration (in words) [5]: centrally penetrant
O=C(Nc1cccc(C(F)(F)F)c1)c1ccccn1 [Compound 9e] | – | 19 % remaining | – | –
COc1cc(NC(=O)c2ccccn2)ccc1F [Compound 9a] | – | 6.3 % remaining | 3.0 % remaining | –
O=C(Nc1cccc(OC(F)(F)F)c1)c1ccccn1 [Compound 9d] | – | 20 % remaining | 22 % remaining | loss of activity (human mGluR4 [1]; 9d (trifluoromethoxy) vs. 9c (difluoromethoxy)): > 10 fold
O=C(Nc1ccc(Cl)c(Cl)c1)C1CCCCC1 [Compound 8h] | inactive | – | – | –
O=C(Nc1ccc(Cl)c(Cl)c1)c1ccccc1 [Compound 8i] | inactive | – | – | –
COc1cc(NC(=O)c2ccccn2)ccc1Cl [Compound 9b] | submicromolar potency | 1.8 % remaining | 5.3 % remaining | potency at rat mGluR4 (in words) (rat mGluR4): submicromolar potency; separation in potencies compared to mGluR4 (mGluR5): > 20 fold; PAM activity at mGluR5 (in words) (mGluR5): weak PAM activity; separation in potencies compared to mGluR4 (mGluR8): > 20 fold; PAM activity at mGluR8 (in words) (mGluR8): weak PAM activity; central penetration (in words) [5]: centrally penetrant
